The target in test [1] is T1, NAD-dependent protein deacetylase sirtuin-3, mitochondrial (Homo sapiens, UniProt Q9NTG7).
T1 sequence (Q9NTG7 whole entry): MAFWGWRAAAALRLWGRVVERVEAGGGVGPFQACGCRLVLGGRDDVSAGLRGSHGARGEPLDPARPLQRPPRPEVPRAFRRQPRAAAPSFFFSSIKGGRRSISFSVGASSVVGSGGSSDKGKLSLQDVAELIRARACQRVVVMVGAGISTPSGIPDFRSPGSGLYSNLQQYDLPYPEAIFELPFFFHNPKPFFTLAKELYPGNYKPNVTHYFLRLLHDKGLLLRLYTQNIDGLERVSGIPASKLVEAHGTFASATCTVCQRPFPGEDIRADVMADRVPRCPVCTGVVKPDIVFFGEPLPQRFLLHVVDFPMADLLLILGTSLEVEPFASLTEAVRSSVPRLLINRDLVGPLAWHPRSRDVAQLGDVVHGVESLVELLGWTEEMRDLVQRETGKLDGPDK
Kind of test: Inhibition of human SIRT3 (118 to 399 aa) expressed in Escherichia coli BL21 cells.

Test [2] concerns the target T2, NAD-dependent protein deacetylase sirtuin-1 (Homo sapiens, UniProt Q96EB6).
T2 sequence (Q96EB6 whole entry): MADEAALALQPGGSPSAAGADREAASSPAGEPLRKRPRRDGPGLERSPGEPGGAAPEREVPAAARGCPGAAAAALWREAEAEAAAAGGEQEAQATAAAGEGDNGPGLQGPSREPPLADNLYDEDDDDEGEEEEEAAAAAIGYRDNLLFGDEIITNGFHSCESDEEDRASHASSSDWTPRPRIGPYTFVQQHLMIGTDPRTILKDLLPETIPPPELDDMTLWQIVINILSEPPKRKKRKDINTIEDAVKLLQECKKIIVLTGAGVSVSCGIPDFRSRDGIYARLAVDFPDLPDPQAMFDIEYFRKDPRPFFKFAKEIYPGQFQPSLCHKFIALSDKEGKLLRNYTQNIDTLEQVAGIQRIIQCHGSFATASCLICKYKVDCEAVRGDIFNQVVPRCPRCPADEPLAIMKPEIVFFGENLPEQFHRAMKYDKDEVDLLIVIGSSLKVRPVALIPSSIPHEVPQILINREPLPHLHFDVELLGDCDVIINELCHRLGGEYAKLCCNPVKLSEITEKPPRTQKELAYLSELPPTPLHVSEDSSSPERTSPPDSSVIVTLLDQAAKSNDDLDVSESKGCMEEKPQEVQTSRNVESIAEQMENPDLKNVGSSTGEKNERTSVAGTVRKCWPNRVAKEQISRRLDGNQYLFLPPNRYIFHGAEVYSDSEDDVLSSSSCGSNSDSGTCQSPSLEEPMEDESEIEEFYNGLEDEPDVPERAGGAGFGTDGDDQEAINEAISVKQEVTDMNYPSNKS
Kind of test: Inhibition of human N-terminal His6 tagged SIRT1 (183-505-(GGGS)2-641-665 residues) expressed in Escherichia coli BL21 cells.

Test [3] concerns the target T3, NAD-dependent protein deacylase sirtuin-5, mitochondrial (Homo sapiens, UniProt Q9NXA8). As to the kind of experiment: Inhibition of GST-tagged SIRT5 (unknown origin) incubated for 5 mins by HPLC based analysis.
Target sequence in this assay (Q9NXA8 whole entry): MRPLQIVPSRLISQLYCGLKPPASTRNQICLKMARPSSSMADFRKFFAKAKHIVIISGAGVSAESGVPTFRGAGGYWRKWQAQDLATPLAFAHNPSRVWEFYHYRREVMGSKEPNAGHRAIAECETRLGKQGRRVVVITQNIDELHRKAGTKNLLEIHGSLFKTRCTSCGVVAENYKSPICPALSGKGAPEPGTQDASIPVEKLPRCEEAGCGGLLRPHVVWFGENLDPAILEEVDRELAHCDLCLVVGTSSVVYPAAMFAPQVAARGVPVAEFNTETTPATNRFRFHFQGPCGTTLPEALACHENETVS
Test [4] has as its target T3, NAD-dependent protein deacylase sirtuin-5, mitochondrial. Kind of test: Inhibition of GST-tagged SIRT5 (unknown origin) incubated for 10 mins by HPLC based analysis.
Target sequence in this assay (Q9NXA8 whole entry): as above
The target is the same in test [5]. Kind of test: Inhibition of SIRT5 (unknown origin).
Target sequence in this assay (Q9NXA8 whole entry): as above
Test [6] addresses T4, NAD-dependent protein deacetylase sirtuin-2 (Homo sapiens, UniProt Q8IXJ6).
T4 sequence (Q8IXJ6 whole entry): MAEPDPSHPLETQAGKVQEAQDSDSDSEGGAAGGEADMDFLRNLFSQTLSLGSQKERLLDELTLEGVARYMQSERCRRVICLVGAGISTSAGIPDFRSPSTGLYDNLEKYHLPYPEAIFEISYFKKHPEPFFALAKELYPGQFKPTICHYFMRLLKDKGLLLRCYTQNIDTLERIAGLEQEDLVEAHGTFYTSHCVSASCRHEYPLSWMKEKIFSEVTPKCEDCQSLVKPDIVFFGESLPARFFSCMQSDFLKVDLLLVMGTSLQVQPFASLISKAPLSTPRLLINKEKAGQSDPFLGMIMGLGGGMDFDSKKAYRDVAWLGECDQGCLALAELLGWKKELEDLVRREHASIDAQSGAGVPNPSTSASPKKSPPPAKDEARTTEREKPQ
As to the kind of experiment: Inhibition of SIRT2 (unknown origin).

For test [7], the target named is T2, NAD-dependent protein deacetylase sirtuin-1. As to the kind of experiment: Inhibition of SIRT1 (unknown origin).
Test [8] has as its target T3, NAD-dependent protein deacylase sirtuin-5, mitochondrial. Kind of test: Inhibition of human recombinant SIRT5 using Benzyl-Lys(succinyl)-AMC as substrate incubated for 2 hrs by fluorescence based assay.
Target sequence in this assay (Q9NXA8 whole entry): as the sequence (Q9NXA8 whole entry) above
The target is the same in test [9]. Kind of test: Inhibition of SIRT5 (unknown origin) at 30 uM relative to control.
Target sequence in this assay (Q9NXA8 37-310 limits assumed): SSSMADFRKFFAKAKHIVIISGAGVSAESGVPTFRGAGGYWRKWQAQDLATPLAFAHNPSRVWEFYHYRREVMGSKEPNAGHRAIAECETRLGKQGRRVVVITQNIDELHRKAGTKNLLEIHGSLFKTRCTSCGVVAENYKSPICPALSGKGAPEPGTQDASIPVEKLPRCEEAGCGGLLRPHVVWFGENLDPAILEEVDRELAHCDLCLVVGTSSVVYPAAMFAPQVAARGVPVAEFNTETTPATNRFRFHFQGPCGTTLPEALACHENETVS
The target is the same in test [10]. Kind of test: Inhibition of SIRT5 (unknown origin) at 100 uM relative to control.
Target sequence in this assay (Q9NXA8 37-310 limits assumed): as above

*1 amine or outer side, *2 acyl side, *3 side chain or, on linkers, in order; H or OH if unused. Where a SMILES comes first, the peptide text is derived from it. Bridges are numbered along the chain shown (N, C = ends). [ ]: non-standard residue; d: D form. X1 = O=C(O)CCNC(=S)NCCCC[C@H](N[*:1])C(=O)[*:2]; Suberoyl = O=C(CCCCCCC(=O)[*:2])[*:1] Where only a bound is given, the exact number is not on record here.

For `CCn1c(=O)n(CC(C)C)c(=O)c2[nH]c(SSc3nc4c([nH]3)c(=O)n(CC(C)C)c(=O)n4CC)nc21`, the IC50 (in general, the midpoint of a concentration-inhibition curve) in [1] came to 0.43 µM; in [2] it was 1.77 µM. Regarding `CC(=O)N[C@H]1CCCCNC(=O)CNC(=O)CCCCCCC(=O)NC(=O)NCCCC[C@@H](C(=O)N[C@H](C(N)=O)[C@@H](C)O)NC(=O)[C@H](CCCCNC(=S)NCCC(=O)O)NC(=O)[C@H](CCCNC(=N)N)NC1=O`, the IC50 in [3] amounted to 6 µM. In turn, `O=C(O)CCNC(=S)NCCCCC(NC(=O)OCc1ccccc1)C(=O)Nc1ccccc1O` (stereo unspecified) registered an IC50 in [4] below 15 µM. Regarding `O=C(O)CCNC(=S)NCCCC[C@H](NS(=O)(=O)c1cccc(F)c1)C(=O)N[C@@H](Cc1c[nH]c2ccccc12)C(=O)NC1CCC1`, the IC50 in test [5] is below 0.3 µM. Take `O=C(O)CCNC(=S)NCCCCC(NC(=O)OCc1ccccc1)C(=O)Nc1ccc(O)cc1` (stereo unspecified): the half-maximal inhibitory concentration (IC50) in test [4] was below 15 µM. On to `O=C(O)CC(=S)NCCCC[C@H](NC(=O)OCc1ccccc1)C(=O)Nc1ccccc1`, for which the values for the IC50 in test [6], in [7] and in [5] were 256 µM, 256 µM and 5 µM, respectively. On to `N#C/C(=C\c1ccc(-c2ccc(C(=O)O)cc2)o1)C(=O)Nc1ccc(Cl)c([N+](=O)[O-])c1`, for which the IC50 in [8] stood at 9.26 µM. As to `O=C(NCCn1c2ccccc2c2ccccc21)Nc1ccc(C(=O)O)cc1`, the inhibition (in general, the percentage by which the read-out fell short of the control) in test [9] amounted to 35%; in test [10], 52%.

In [5], `O=C(O)CCNC(=S)NCCCC[C@H](NS(=O)(=O)c1cccc(F)c1)C(=O)N[C@@H](Cc1c[nH]c2ccccc12)C(=O)NC1CC1` showed a half-inhibitory concentration (IC50) below 0.3 µM. Still for that read-out and setting: under `N=C(N)NCCCC[C@@H]1NC(=O)CCC(=O)NCCCC[C@@H](C(N)=O)NC(=O)[C@H](CCCCNC(=S)NCCC(=O)O)NC1=O` stands 2.2 µM; under `CC1(C)CC[C@]2(C(=O)O)[C@H](O)C[C@]3(C)C(=CC[C@@H]4[C@@]5(C)CC[C@H](O)C(C)(C)[C@@H]5CC[C@]43C)[C@@H]2C1`, 40 µM; under `N=C(N)NCCCC[C@@H]1NC(=O)CCCCCCC(=O)NCCCC[C@@H](C(N)=O)NC(=O)[C@H](CCCCNC(=S)NCCC(=O)O)NC1=O`, 13.2 µM. For `N#C/C(=C\c1ccc(-c2ccc(C(=O)O)cc2)o1)C(=O)Nc1ccc(C#N)c(F)c1`, the half-inhibitory concentration (IC50) in test [8] stood at 5.9 µM. As for `CC(=O)NC(CCCCNC(=S)NCCC(=O)O)C(=O)Nc1cccc(O)c1` (stereo unspecified), the concentration for half-maximal inhibition (IC50) in [4] is below 15 µM. For `N=C(N)NCCCC[C@@H]1NC(=O)CCCCC(=O)NCCCC[C@@H](C(N)=O)NC(=O)[C@H](CCCCNC(=S)NCCC(=O)O)NC1=O`, in test [5], the IC50 turned out to be 6.5 µM. On the same count and under the same terms, under `CC1(C)CC[C@]2(C(=O)O)CC[C@]3(C)C(=CC[C@@H]4[C@@]5(C)CC[C@H](O)C(C)(C)[C@@H]5CC[C@]43C)[C@@H]2C1` [OLEANOLIC_ACID] stands 70 µM.

Molecule `CC(C)(C)OC(=O)NC(CCCCNC(=S)NCCC(=O)O)C(=O)Nc1cccc(O)c1` (stereo unspecified) showed an IC50 in [4] below 15 µM. In test [5], `N=C(N)NCCCC[C@@H]1NC(=O)CCNC(=O)CCC[C@@H](C(N)=O)NC(=O)[C@H](CCCCNC(=S)NCCC(=O)O)NC1=O` showed an IC50 of 4 µM. Take `CC(=O)N[C@H]1CCCCNC(=O)CCCCCCC(=O)NCCCC[C@@H](C(=O)N[C@H](C(N)=O)[C@@H](C)O)NC(=O)[C@H](CCCCNC(=S)NCCC(=O)O)NC(=O)[C@H](CCCNC(=N)N)NC1=O` (Ac-KR[X1]KT-NH2; linker 1-4 via Suberoyl): the IC50 in [3] stood at 7 µM. In the case of `CC1=NN(c2ccc(C)c(Cl)c2)C(=O)/C1=C\c1ccc(-c2ccc(C(=O)O)cc2)o1`, the 50% inhibitory concentration (IC50) in test [8] stood at 18.3 µM. Turning to `CNC(=O)c1cccc(NC(=O)/C(C#N)=C/c2ccc(-c3ccc(C(=O)O)cc3)o2)c1`, the 50% inhibitory concentration (IC50) in test [8] came to 8 µM. As to `O=C(O)CCNC(=S)NCCCC[C@H](NS(=O)(=O)c1cccc(F)c1)C(=O)N[C@@H](Cc1c[nH]c2ccccc12)C(=O)NC1CCCC1`, in test [5], half-maximal inhibition (IC50) was put at 0.11 µM.

Values taken from ChEMBL document CHEMBL5126549, “Overview of SIRT5 as a potential therapeutic target: Structure, function and inhibitors” (Eur J Med Chem, 2022).
